Results on 19 compounds are retold here after US20120225062A1 (priority 2011, published 2012).

The subject of assay [1] is KMS11 (human myeloma cell line). In words: Cell Proliferation Assay (CellTiter-Glo, 3 days). It counts as cell-based. The following applies: KMS-11, 72 h, KMS11-luc cells. The method, boiled down: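 EC50 from CellTiter-Glo luminescence after 3-day, 37° C compound treatment of KMS11 cells seeded at 2000 per well in IMDM plus 10% FBS.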
For assay [2], the target named is Pim 3 (Homo sapiens, UniProt Q86V86). In words: Pim 3 AlphaScreen assay (high ATP).
In assay [3] the target is Pim 2 (Homo sapiens, UniProt Q9P1W9). Kind of assay: Pim 2 AlphaScreen assay (high ATP).
For assay [4], the target named is Pim 1 (Homo sapiens, UniProt P11309). Kind of assay: Pim 1 AlphaScreen assay (high ATP).
Chain of Pim 1 (P11309 whole entry): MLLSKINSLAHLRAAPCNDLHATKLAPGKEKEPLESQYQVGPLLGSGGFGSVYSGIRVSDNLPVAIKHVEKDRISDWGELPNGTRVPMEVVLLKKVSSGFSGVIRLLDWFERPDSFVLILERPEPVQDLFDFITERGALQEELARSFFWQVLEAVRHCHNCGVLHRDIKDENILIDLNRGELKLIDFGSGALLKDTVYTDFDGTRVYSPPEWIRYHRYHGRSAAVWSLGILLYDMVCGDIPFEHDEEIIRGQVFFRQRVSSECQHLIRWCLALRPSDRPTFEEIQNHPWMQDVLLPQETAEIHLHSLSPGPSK

Chain of Pim 2 (Q9P1W9 whole entry): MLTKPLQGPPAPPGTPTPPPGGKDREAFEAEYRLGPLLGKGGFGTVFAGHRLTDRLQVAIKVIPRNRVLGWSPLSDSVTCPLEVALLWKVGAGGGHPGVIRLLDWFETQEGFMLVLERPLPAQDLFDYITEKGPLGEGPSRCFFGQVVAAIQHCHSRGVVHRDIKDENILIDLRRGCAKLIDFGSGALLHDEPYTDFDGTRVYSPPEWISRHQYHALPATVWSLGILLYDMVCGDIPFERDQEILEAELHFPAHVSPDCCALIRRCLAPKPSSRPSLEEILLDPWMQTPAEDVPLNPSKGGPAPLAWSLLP

`CCC(=O)c1cc(F)c(-c2nc(C(=O)Nc3cnccc3[C@@H]3C[C@H](C)C[C@H](N)C3)ccc2F)c(F)c1` [Example 43, N-(4-((1R,3S,5S)-3-amino-5-methylcyclohexyl)pyridin-3-yl)-6-(2,6-difluoro-4-propionylphenyl)-5-fluoropicolinamide]: in assay [1], the EC50 was 43 nM. The IC50 was determined as 11.4 nM in assay [2], 15.3 nM in assay [3] and 0.14 nM in assay [4].

Consider `C[C@H]1CN(c2ccncc2NC(=O)c2ccc(F)c(-c3c(F)cc(C4(F)CCOCC4)cc3F)n2)C[C@@H](N)[C@@H]1O` [Example 195, N-(4-((3R,4R,5S)-3-amino-4-hydroxy-5-methylpiperidin-1-yl)pyridin-3-yl)-6-(2,6-difluoro-4-(4-fluorotetrahydro-2H-pyran-4-yl)phenyl)-5-fluoropicolinamide], for which, in assay [1], the EC50 is 36 nM. Moreover, the IC50 in assay [2] amounted to 0.18 nM; in assay [3], 0.39 nM; in assay [4], 0.01 nM.

For `C[C@H]1CN(c2ccncc2NC(=O)c2nc(-c3c(F)cc(C(C)(C)O)cc3F)c(F)cc2N)C[C@@H](N)[C@@H]1O` [Example 102, 3-amino-N-(4-((3R,4R,5S)-3-amino-4-hydroxy-5-methylpiperidin-1-yl)pyridin-3-yl)-6-(2,6-difluoro-4-(2-hydroxypropan-2-yl)phenyl)-5-fluoropicolinamide], the response in assay [1] was half-maximal at 15 nM (EC50). Also, the values for the IC50 in assay [2], in assay [3] and in assay [4] were 0.13 nM, 0.75 nM and 0.01 nM, respectively.

On to `COCCOc1ccc(F)c(-c2nc(C(=O)Nc3cnccc3[C@@H]3C[C@H](C)C[C@H](N)C3)ccc2F)c1F` [Example 13, N-(4-((1R,3S,5S)-3-amino-5-methylcyclohexyl)pyridin-3-yl)-6-(2,6-difluoro-3-(2-methoxyethoxy)phenyl)-5-fluoropicolinamide], for which, in assay [1], the EC50 came to 187 nM. The IC50 in assay [2] was 1.27 nM; in assay [3] it was 9.36 nM; in assay [4], 0.04 nM.

Consider `C[C@@H]1C[C@H](N)C[C@H](c2ccncc2NC(=O)c2ccc(F)c(-c3c(F)cc(OCC4CCOCC4)cc3F)n2)C1` [Example 177, N-(4-((1R,3S,5S)-3-amino-5-methylcyclohexyl)pyridin-3-yl)-6-(2,6-difluoro-4-((tetrahydro-2H-pyran-4-yl)methoxy)phenyl)-5-fluoropicolinamide], for which the EC50 in assay [1] is 381 nM. The IC50 in assay [2] was 0.78 nM; in assay [3], 1.33 nM; in assay [4] it was 0.02 nM.

For the compound `C[C@H]1C[C@@H](c2ccncc2NC(=O)c2ccc(F)c(-c3c(F)cc4c(c3F)OCC4)n2)C[C@@H](N)[C@@H]1O` [Example 180, N-(4-((1R,3R,4R,5S)-3-amino-4-hydroxy-5-methylcyclohexyl)pyridin-3-yl)-6-(5,7-difluoro-2,3-dihydrobenzofuran-6-yl)-5-fluoropicolinamide], the midpoint of the response in assay [1], the EC50, lay at 145 nM. The IC50 in assay [2] is 0.58 nM; in assay [3], 0.92 nM; in assay [4], 0.02 nM.

`COC1(c2cc(F)c(-c3nc(C(=O)Nc4cnccc4[C@H]4C[C@@H](N)[C@H](O)[C@@H](C)C4)ccc3F)c(F)c2)COC1` [Example 52, N-(4-((1R,3R,4R,5S)-3-amino-4-hydroxy-5-methylcyclohexyl)pyridin-3-yl)-6-(2,6-difluoro-4-(3-methoxyoxetan-3-yl)phenyl)-5-fluoropicolinamide]: the EC50 in assay [1] stood at 55 nM. Also, the IC50 in assay [2] was determined as 2.86 nM; in assay [3], 4.79 nM; in assay [4] it was 0.05 nM.

In the case of `C[C@@H]1C[C@H](N)C[C@H](c2ccncc2NC(=O)c2ccc(F)c(-c3c(F)cc(OCC(F)(F)F)cc3F)n2)C1` [Example 196, N-(4-((1R,3S,5S)-3-amino-5-methylcyclohexyl)pyridin-3-yl)-6-(2,6-difluoro-4-(2,2,2-trifluoroethoxy)phenyl)-5-fluoropicolinamide], the 50% effective concentration (EC50) in assay [1] was 246 nM. The IC50 in assay [2] came to 1.37 nM; in assay [3], 2.76 nM; in assay [4], 0.02 nM.

Take `COCCc1cc(F)c(-c2nc(C(=O)Nc3cnccc3[C@@H]3C[C@H](C)C[C@H](N)C3)ccc2F)c(F)c1` [Example 67, N-(4-((1R,3S,5S)-3-amino-5-methylcyclohexyl)pyridin-3-yl)-6-(2,6-difluoro-4-(2-methoxyethyl)phenyl)-5-fiuoropicolinamide]: in assay [1], the half-maximal effective concentration (EC50) stood at 23 nM. Besides, the IC50 amounted to 0.94 nM in assay [2], 1.69 nM in assay [3] and 0.02 nM in assay [4].

For `C[C@H]1CN(c2ccncc2NC(=O)c2ccc(F)c(-c3c(F)cc(OCC4CC4)cc3F)n2)C[C@@H](N)[C@@H]1O` [Example 92, N-(4-((3R,4R,5S)-3-amino-4-hydroxy-5-methylpiperidin-1-yl)pyridin-3-yl)-6-(4-(cyclopropylmethoxy)-2,6-difluorophenyl)-5-fluoropicolinamide], in assay [1], the EC50 turned out to be 34 nM. For the same compound, the IC50 came to 0.09 nM in assay [2], 0.51 nM in assay [3] and 0.01 nM in assay [4].

Turning to `C[C@@H]1C[C@H](N)C[C@H](c2ccncc2NC(=O)c2cccc(-c3c(F)cc(C4(F)CCOCC4)cc3F)n2)C1` [Example 190, N-(4-((1R,3S,5S)-3-amino-5-methylcyclohexyl)pyridin-3-yl)-6-(2,6-difluoro-4-(4-fluorotetrahydro-2H-pyran-4-yl)phenyl)picolinamide], the EC50 in assay [1] stood at 402 nM. The results for the IC50 in assay [2], in assay [3] and in assay [4] were 2.9 nM, 3.26 nM and 0.05 nM, respectively.

As for `C[C@H]1C[C@@H](c2ccncc2NC(=O)c2ccc(F)c(-c3c(F)cc(C4CCS(=O)(=O)CC4)cc3F)n2)C[C@@H](N)[C@H]1O` [Example 205, N-(4-((1R,3R,4S,5S)-3-amino-4-hydroxy-5-methylcyclohexyl)pyridin-3-yl)-6-(4-(1,1-dioxidotetrahydro-2H-thiopyran-4-yl)-2,6-difluorophenyl)-5-fluoropicolinamide], the EC50 in assay [1] turned out to be 1380 nM. The values for the concentration for half-maximal inhibition (IC50) in assay [2], in assay [3] and in assay [4] were 1.07 nM, 1.52 nM and 0.02 nM, respectively.

In the case of `C[C@H]1C[C@@H](c2ccncc2NC(=O)c2ccc(F)c(-c3c(F)cc(OCC4CCOCC4)cc3F)n2)C[C@@H](N)[C@@H]1O` [Example 178, N-(4-((1R,3R,4R,5S)-3-amino-4-hydroxy-5-methylcyclohexyl)pyridin-3-yl)-6-(2,6-difluoro-4-((tetrahydro-2H-pyran-4-yl)methoxy)phenyl)-5-fluoropicolinamide], in assay [1], a half-maximal response (EC50) required 395 nM. The IC50 in assay [2] is 0.84 nM; in assay [3], 1.42 nM; in assay [4], 0.03 nM.

As to `CC(C)[C@@H]1C[C@H](N)C[C@H](c2ccncc2NC(=O)c2ccc(F)c(-c3c(F)cc(C(C)(C)O)cc3F)n2)C1` [Example 119, N-(4-((1R,3S,5S)-3-amino-5-isopropylcyclohexyl)pyridin-3-yl)-6-(2,6-difluoro-4-(2-hydroxypropan-2-yl)phenyl)-5-fluoropicolinamide], the midpoint of the response in assay [1], the EC50, lay at 17 nM. Further, the IC50 in assay [2] came out at 0.42 nM; in assay [3], 1.36 nM; in assay [4], 0.01 nM.

Take `C[C@@H]1C[C@H](N)C[C@H](c2ccncc2NC(=O)c2ccc(F)c(-c3c(F)cc(O[C@@H]4CCCOC4)cc3F)n2)C1` [Example 77, N-(4-((1R,3S,5S)-3-amino-5-methylcyclohexyl)pyridin-3-yl)-6-(2,6-difluoro-4-((R)-tetrahydro-2H-pyran-3-yloxy)phenyl)-5-fluoropicolinamide]: the midpoint of the response in assay [1], the EC50, lay at 48 nM. Also, the IC50 in assay [2] turned out to be 1.12 nM; in assay [3], 1.84 nM; in assay [4], 0.02 nM.

In turn, `COc1ccc(F)c(-c2nc(C(=O)Nc3cnccc3[C@@H]3C[C@H](C)C[C@H](N)C3)ccc2F)c1F` [Example 212, N-(4-((1R,3S,5S)-3-amino-5-methylcyclohexyl)pyridin-3-yl)-6-(2,6-difluoro-3-methoxyphenyl)-5-fluoropicolinamide] gave an EC50 in assay [1] of 50 nM. The figures for the IC50 in assay [2], in assay [3] and in assay [4] were 1.03 nM, 3.77 nM and 0.03 nM, respectively.

The compound `CC(C)Oc1cc(F)c(-c2nc(C(=O)Nc3cnccc3[C@H]3C[C@@H](N)[C@@H](O)[C@@H](C)C3)ccc2F)c(F)c1` [Example 125, N-(4-((1R,3R,4S,5S)-3-amino-4-hydroxy-5-methylcyclohexyl)pyridin-3-yl)-6-(2,6-difluoro-4-isopropoxyphenyl)-5-fluoropicolinamide] registered an EC50 in assay [1] of 100 nM. For the same compound, the IC50 in assay [2] stood at 0.96 nM; in assay [3], 1.82 nM; in assay [4] it was 0.03 nM.

With `C[C@@H]1C[C@H](N)C[C@H](c2ccncc2NC(=O)c2ccc(F)c(-c3c(F)cc(OC4COC4)cc3F)n2)C1` [Example 48, N-(4-((1R,3S,5S)-3-amino-5-methylcyclohexyl)pyridin-3-yl)-6-(2,6-difluoro-4-(oxetan-3-yloxy)phenyl)-5-fluoropicolinamide], the EC50 in assay [1] worked out at 84 nM. Moreover, the IC50 turned out to be 0.24 nM in assay [2], 4.16 nM in assay [3] and 0.08 nM in assay [4].

In assay [1], `C[C@H]1C[C@@H](c2ccncc2NC(=O)c2ccc(F)c(-c3c(F)cc(OCC(F)(F)F)cc3F)n2)C[C@@H](N)[C@@H]1O` [Example 197, N-(4-((1R,3R,4R,5S)-3-amino-4-hydroxy-5-methylcyclohexyl)pyridin-3-yl)-6-(2,6-difluoro-4-(2,2,2-trifluoroethoxy)phenyl)-5-fluoropicolinamide] returned an EC50 of 619 nM. Besides, the figures for the concentration for half-maximal inhibition (IC50) in assay [2], in assay [3] and in assay [4] were 1.43 nM, 2.56 nM and 0.05 nM, respectively.
